{"source": "patent US9901609B2", "about": "“Medicinal plant extract” (UNIVERSITY OF ANTWERP, priority 2013, dated 2018)", "assay": "Body weight monitoring during the in vivo experiment", "set-up": "species or system dogs", "settings": "entire experiment (180 days)", "procedure": "After each surgical procedure each dog received marbofloxacin 2% (1 mg/kg body weight) during 4 days. The body weight of all dogs was monitored during the entire experiment. Data are expressed as mean±SEM. Data were analyzed using one way analysis of variance (ANOVA), followed by the Bonferroni test or Kruskal-Wallis analysis and Dunnett T3. P≦0.05 was considered significant.", "data": [{"smiles": "C[C@H](CCC(=O)O)[C@H]1CC[C@H]2[C@@H]3[C@@H](O)C[C@@H]4C[C@H](O)CC[C@]4(C)[C@H]3CC[C@]12C", "note": "[UDCA, ursodeoxycholic acid]", "values": [{"measurement": "body weight of the dogs over time", "value": "gained or lost no body weight over time"}]}]}
